Data on 52 compounds can be found in patent US8299054B2, “Cyclic 11-beta hydroxysteroid dehydrogenase type 1 inhibitors” (Bristol-Myers Squibb Company, priority 2006, dated 2012).

Molecules are shown by their SMILES.

T1 sequence (P50172 whole entry): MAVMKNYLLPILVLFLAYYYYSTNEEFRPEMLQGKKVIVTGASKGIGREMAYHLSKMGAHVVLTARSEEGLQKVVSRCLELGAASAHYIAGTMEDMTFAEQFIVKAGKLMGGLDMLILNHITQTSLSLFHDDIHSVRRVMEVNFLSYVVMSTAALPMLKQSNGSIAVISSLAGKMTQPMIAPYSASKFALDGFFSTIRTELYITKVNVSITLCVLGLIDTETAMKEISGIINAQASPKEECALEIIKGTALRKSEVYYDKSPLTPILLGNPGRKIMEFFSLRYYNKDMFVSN

The first test addresses T1, 11beta-HSD1 (Mus musculus, UniProt P50172).
T1 construct: from tissue; host or cells: whole animal: diet induced obese (DIO) mice, Jackson Laboratory
Kind of test: In vivo inhibition of 11beta-HSD1: DHC administration to DIO mice, plasma corticosterone AUC. The note with it: 30 mpK, oral, DHC 10 mg/kg 60 minutes after compound.
Procedure: Studies were conducted utilizing diet induced obese (DIO) mice obtained from Jackson Laboratory (ME, USA). These mice were fed a 60% fat diet (Research Diets D12492) soon after weaning and kept on this diet for 24 weeks. These mice were individually housed. All mice were housed under controlled temperature (23° C.) and lighting (12 hours of light between 6 am to 6 pm, 12 hours of dark) with free access to water. The animals continued on this diet and were utilized for experimentation at 30 to 32 weeks of age, at which time these mice weighed 45 to 55 grams.
The basic model of 11-dehydrocorticosterone (DHC) administration to mice to produce corticosterone has been reported in the literature for clinical and preclinical evaluation of the activity of 11 β HSD. Essentially DHC (Steraloids INC, Newport R.I.), was suspended in the vehicle at a concentration of 10 mg/kg in a volume of 7.5 ml/kg of mouse body weight. […] Plasma was separated and collected and immediately frozen at −20° C. until corticosterone analysis could be assessed.
Plasma Corticosterone was measured using an EIA (IDS AC-14F1). Samples were measured at (1:2) for the −30 (or −60 minute) and 0 time point and (1:10) for the 30, 60 and 120 minutes time points. AUC was calculated using Graphpad and the zero timepoint was used as the baseline. One way ANOVA was calculated using Sigmastat. […]
With `CNC(=O)OC1CN(C(=O)CC2(c3ccccc3)C3CC4CC2CC(C3)C4O)C1` (single isomer, unassigned) [Example 242], the % inhibition (in general, how much of the control response was suppressed) is on record as 65%.

In the case of `O=C(CC1(c2ccc(F)cc2)C2CC3CC1CC(C2)C3O)N1CC(O)C1` (centres unmarked) [Example 217], the “% inhibition” value was 67%.

The next test has as its system hepatic glucose production.
Assay: not given
The note with it: patients with type 2 diabetes, seven days, versus placebo; cited from earlier work.
Take `CC1(C)[C@@H](OC(=O)CCC(=O)O)CC[C@]2(C)[C@H]3C(=O)C=C4[C@@H]5C[C@@](C)(C(=O)O)CC[C@]5(C)CC[C@@]4(C)[C@]3(C)CC[C@@H]12` [carbenoxolone]: the hepatic glucose production result is “decrease in hepatic glucose production”.

For another test, the target named is recombinant human 11beta-HSD1 (Homo sapiens, UniProt P28845). The test is described as follows: 11β-HSD-1 SPA Enzyme Assay (Scintillation Proximity assay, microsomes of transfected HEK 293 EBNA cells).
Sequence of recombinant human 11beta-HSD1 (P28845 whole entry): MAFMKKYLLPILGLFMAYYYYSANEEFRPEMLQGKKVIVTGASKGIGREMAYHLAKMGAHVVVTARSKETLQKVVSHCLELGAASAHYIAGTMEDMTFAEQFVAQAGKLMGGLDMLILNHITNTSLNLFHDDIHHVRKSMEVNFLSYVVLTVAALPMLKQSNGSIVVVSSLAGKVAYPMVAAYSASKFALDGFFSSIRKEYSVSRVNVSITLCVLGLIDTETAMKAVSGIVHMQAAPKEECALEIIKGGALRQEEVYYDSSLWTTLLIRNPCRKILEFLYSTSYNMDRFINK
Settings: not given
For the compound `COC(=O)C1CN1C(=O)CC1(c2ccc(F)cc2)C2CC3CC(C2)CC1C3` (centres unmarked) [Example 79], the IC50 (commonly the concentration that inhibits the measured activity by half) was found to be 81 nM.

Turning to `O=C(CC1(c2ccccc2)C2CC3CC1CC(C2)C3O)N1CCC[C@@H](O)C1` (single isomer, unassigned) [Example 281], the IC50 was 175 nM.

On to `CC1(CC(=O)N2CC(NC(=O)OCc3ccccc3)C2)C2CC3CC1CC(C2)C3O` (centres unmarked) [Example 183], for which the IC50 stood at 182 nM.

Regarding `O=C(O)C(C(=O)N1CC(O)C1)C1(c2ccc(F)cc2)C2CC3CC(C2)CC1C3` (centres unmarked) [Example 190], the IC50 turned out to be 9120 nM.

For the compound `CCN(CC)C(=O)CC1(c2ccc(F)cc2)C2CC3CC1CC(F)(C3)C2` (centres unmarked) [Example 307], the IC50 turned out to be 383 nM.

Take `O=C(CC1(c2ccccc2)C2CC3CC1CC(C2)C3O)N1C[C@H](O)CO1` (single isomer, unassigned) [Example 270]: the IC50 was 16 nM.

With `O=C(CC1(c2ccccc2)C2CC3CC1CC(C2)C3O)N1CCC[C@H](O)C1` (single isomer, unassigned) [Example 279], the IC50 was determined as 260 nM.

On to `O=C(CC1(c2ccccc2)C2CC3CC1CC(C2)C3O)N1CCSC1` (centres unmarked) [Example 247], for which the IC50 stood at 3 nM.

Turning to `CN(CCO)C(=O)CC1(c2ccc(F)cc2)C2CC3CC(C2)CC1C3` (centres unmarked) [Example 304], the IC50 was 25 nM.

As to `CNC(=O)OC1CN(C(=O)C[C@]2(c3ccc(F)cc3)C3CC4CC2C[C@](C(N)=O)(C4)C3)C1` [Example 32], the IC50 worked out at 21 nM.

Take `O=C(CC1(c2ccc(F)cc2)C2CC3CC(C2)CC1C3)N1CC[C@H](O)C1` (single isomer, unassigned) [Example 302]: the IC50 came out at 2.4 nM.

For the compound `CNC(=O)NC1CN(C(=O)CC2(c3ccccc3)C3CC4CC2CC(C3)C4O)C1` (centres unmarked) [Example 212], the IC50 turned out to be 127 nM.

Consider `CNC(=O)OC1CN(C(=O)C2(Cc3ccc(Cl)cc3)C3CC4CC(C3)CC2C4)C1` (centres unmarked) [Example 240], for which the IC50 was 67 nM.

Regarding `O=C(C[C@]1(Cc2ccccc2Cl)C2CC3CC1C[C@](O)(C3)C2)N1CC(O)C1` [Example 167], the IC50 was determined as 20 nM.

Regarding `CNC(=O)OC1CN(C(=O)CC2(c3ccccc3)C3CC4CC2CC(C3)C4O)C1` (single isomer, unassigned) [Example 242], the IC50 came out at 8.8 nM.

As to `O=C(O)C1(Cc2coc(-c3ccc(F)cc3)n2)C2CC3CC(C2)CC1C3` (centres unmarked) [Example 55], the IC50 was found to be 2980 nM.

Turning to `O=C(NC1CCN(C(=O)CC2(c3ccc(F)cc3)C3CC4CC(C3)CC2C4)C1)OCc1ccccc1` (centres unmarked) [Example 305], the IC50 worked out at 28 nM.

Consider `Cc1noc(C)c1CC1(C(=O)O)C2CC3CC(C2)CC1C3` (centres unmarked) [Example 140], for which the IC50 was determined as 651 nM.

Turning to `O=C(O)COC1(c2ccc(F)cc2)C2CC3CC(C2)CC1C3` (centres unmarked) [Example 8], the IC50 came out at 633 nM.

For the compound `O=C(O)COC1CN(C(=O)CC2(c3ccc(F)cc3)C3CC4CC(C3)CC2C4)C1` (centres unmarked) [Example 117], the IC50 worked out at 90 nM.

As for `CC(C)(O)CNC(=O)OC1CN(C(=O)CC2(c3ccccc3)C3CC4CC2CC(C3)C4O)C1` (centres unmarked) [Example 243], the IC50 worked out at 16 nM.

Regarding `O=C(CC1(c2ccc(F)cc2)C2CC3CC(C2)CC1C3)N1CC(Oc2ccccc2)C1` (centres unmarked) [Example 174], the IC50 worked out at 1 nM.

`O=C(CC1(c2ccc(F)cc2)C2CC3CC(C2)CC1C3)N1CCC(OCc2ccccc2)C1` (centres unmarked) [Example 303]: the IC50 was 4.7 nM.

As for `O=C(N1CC(O)C1)C1(Cc2ccccc2Cl)C2CC3CC(C2)CC1C3` (centres unmarked) [Example 37], the IC50 amounted to 15 nM.

As to `O=C(O)C1(Cc2cccc(F)c2)C2CC3CC(C2)CC1C3` (centres unmarked) [Example 132], the IC50 amounted to 15 nM.

`O=C(O)C1CN(C(=O)C2CN(C(=O)CC3(Cc4ccccc4)C4CC5CC(C4)CC3C5)C2)C1` (centres unmarked) [Example 106]: the IC50 was 457 nM.

Regarding `O=C(NCc1nnn[nH]1)OC1CN(C(=O)CC2(c3ccccc3)C3CC4CC2CC(C3)C4O)C1` (single isomer, unassigned) [Example 259], the IC50 came out at 75 nM.

Turning to `O=C(C[C@]1(Cc2ccccc2)C2CC3CC1C[C@@](O)(C3)C2)N1CC(O)C1` [Example 122], the IC50 worked out at 253 nM.

Regarding `O=C(O)C1(CCc2ccccc2)C2CC3CC(C2)CC1C3` (centres unmarked) [Example 136], the IC50 worked out at 1150 nM.

Take `CNC(=O)OC1CN(C(=O)CC2(c3ccc(F)cc3)C3CC4CC2CC(C3)O4)C1` (centres unmarked) [Example 236]: the IC50 was found to be 274 nM.

As to `CS(=O)(=O)NC(=O)CC1(c2ccc(F)cc2)C2CC3CC(C2)CC1C3` (centres unmarked) [Example 22], the IC50 amounted to 159 nM.

In the case of `O=C(C[C@]1(c2ccc(F)cc2)C2CC3CC1C[C@@](C(=O)O)(C3)C2)N1CC(O)C1` [Example 181], the IC50 came to 128 nM.

Regarding `COC(=O)NC1CN(C(=O)C[C@]2(c3ccc(F)cc3)C3CC4CC2C[C@](C(N)=O)(C4)C3)C1` [Example 210], the IC50 was 316 nM.

As to `COC(=O)NC1CN(C(=O)CC2(c3ccc(F)cc3)C3CC4CC2CC(C3)O4)C1` (centres unmarked) [Example 235], the IC50 was 520 nM.

On to `C=CCO[C@]12CC3CC(C1)[C@](CC(=O)N1CC(O)C1)(c1ccc(F)cc1)C(C3)C2` [Example 98], for which the IC50 came to 1.6 nM.

`CC(C)c1ccc(C2(CC(=O)N3CC(O)C3)C3CC4CC2CC(C3)C4O)cc1` (centres unmarked) [Example 292]: the IC50 amounted to 2.8 nM.

Take `O=C(O)CC1(Cc2ccccc2)C2CCCC1CCC2` (centres unmarked) [Example 49]: the IC50 was 97 nM.

As to `N#Cc1ccc(OC2CN(C(=O)CC3(c4ccc(F)cc4)C4CC5CC(C4)CC3C5)C2)nc1` (centres unmarked) [Example 182], the IC50 was 2.4 nM.

Regarding `CC(C(=O)N1CC(O)C1)C1(c2ccc(F)cc2)C2CC3CC(C2)CC1C3` (centres unmarked) [Example 188], the IC50 amounted to 121 nM.

Regarding `CS(=O)(=O)NC(=O)C1CN(C(=O)CC2(c3ccccc3)C3CC4CC2CC(C3)C4O)C1` (centres unmarked) [Example 250], the IC50 is 1720 nM.

As for `C=C1CC2CCC(C1)C2(CC(=O)O)c1ccc(F)cc1` (centres unmarked) [Example 134], the IC50 was found to be 30 nM.

For the compound `O=C(CC1(c2ccccc2)C2CC3CC1CC(C2)C3O)N1CC(CO)C1` (single isomer, unassigned) [Example 265], the IC50 is 6.1 nM.

As for `O=C(CC1(c2ccccc2)C2CC3CC1CC(C2)C3O)N1CC(c2nnc3ccccn23)C1` (centres unmarked) [Example 35], the IC50 came out at 636 nM.

Staying with this test, now noted: read-out: h HSD1 IC50; human microsomes, 40 nM 3H-cortisone, 4 hrs at room temperature.
Regarding `CC1(CC(=O)N2CC(O)(c3ccc(F)cc3)C2)C2CC3CC1CC(C2)C3O` (centres unmarked) [Example 213], the IC50 amounted to 44 nM.

For `CNC(=O)OCC1CN(C(=O)CC2(c3ccccc3)C3CC4CC2CC(C3)C4O)C1` (centres unmarked) [Example 216], the IC50 amounted to 5.1 nM.

Take `Cn1nnc(C2CN(C(=O)CC3(c4ccccc4)C4CC5CC3CC(C4)C5O)C2)n1` (centres unmarked) [Example 28]: the IC50 stood at 10 nM.

With `Cc1nnc(C2CN(C(=O)CC3(c4ccccc4)C4CC5CC3CC(C4)C5O)C2)o1` (centres unmarked) [Example 34], the IC50 stood at 196 nM.

For `CS(=O)(=O)NC1CN(C(=O)CC2(Cc3ccccc3)C3CC4CC2CC(C3)C4O)C1` (centres unmarked) [Example 195], the IC50 was determined as 105 nM.

Turning to `O=C(CC1(c2ccc(F)cc2)C2CCCC1CC(O)C2)N1CC(O)C1` (centres unmarked) [Example 23, 2-(9-(4-Fluorophenyl)-3-hydroxybicyclo[3.3.1]nonan-9-yl)-1-(3-hydroxyazetidin-1-yl)ethanone], the IC50 was determined as 8.3 nM.

Turning to `Cc1nnc(COC2CN(C(=O)CC3(c4ccccc4)C4CC5CC3CC(C4)C5O)C2)o1` (centres unmarked) [Example 36], the concentration for half-maximal inhibition (IC50) came to 14 nM.
